Source: patent publication US11472766B2, “Lipid nanoparticle composition” (Suzhou Abogen Biosciences Co., Ltd., priority 2020, dated 2022)

Assays:
[1] = Encapsulation efficiency of lipid nanoparticles (Quant-it Ribogreen RNA quantification assay); assay type: physicochemical; details: LNP encapsulating hEPO mRNA
Procedure, shortened: (§1)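 LNPs of cationic lipid:DSPC:cholesterol:PEG-lipid (50:10:38.5:1.5 molar) with mRNA in 10–50 mM citrate pH 4, microfluidic mixing at 1:3 ethanol:aqueous, lipid:mRNA weight ratio ~10:1–30:1, dialysed into DPBS and 0.2 μm filtered. Size by DLS, 173° backscatter; encapsulation efficiency by Ribogreen assay.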

[2] = tested on: human erythropoietin (hEPO) mRNA; experiment: Animal study: hEPO expression after tail vein injection of LNPs encapsulating hEPO mRNA (serum ELISA); assay type: in vivo; details: hEPO level, female ICR mice, 0.5 mg/kg, 6 hours post administration; for Expression at 6 h (μg/ml): class symbols, Table 3; for Expression at 6 h: Table 2
Procedure, shortened: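 Female ICR mice (6-8 weeks) received LNPs carrying hEPO mRNA by tail vein injection at 0.5 mg/kg, with MC3 LNPs dosed the same way as positive control. Blood was drawn at set times (e.g., 6 h) and serum separated. hEPO was quantified by ELISA and reported as μg/ml.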

[3] = Apparent pKa of LNP formulations (TNS fluorescence assay); details: LNP cationic lipid/DSPC/cholesterol/DMG-PEG 50/10/38.5/1.5 mol %
Experimental: The apparent pKa of each formulation was determined using an assay based on fluorescence of 2-(p-toluidino)-6-napthalene sulfonic acid (TNS). LNP formulations comprising of cationic lipid/DSPC/cholesterol/DMG-PEG (50/10/38.5/1.5 mol %) in PBS were prepared as described above. TNS was prepared as a 300 uM stock solution in distilled water. LNP formulations were diluted to 0.1 mg/ml total lipid in 3 mL of buffered solutions containing 50 mM sodium citrate, 50 mM sodium phosphate, 50 mM sodium borate, and 30 mM sodium chloride where the pH ranged from 3 to 9. An aliquot of the TNS solution was added to give a final concentration of 0.1 mg/ml and following vortex mixing fluorescence intensity was measured at room temperature in a Molecular Devices Spectramax iD3 spectrometer using excitation and mission wavelengths of 325 nm and 435 nm. A sigmoidal best fit analysis was applied to the fluorescence data and the pKa value was measured as the pH giving rise to half-maximal fluorescent intensity.

[4] = Lipid nanoparticle size by dynamic light scattering (Malvern Zetasizer Nano ZS); assay type: physicochemical; details: LNP: cationic lipid/DSPC/cholesterol/PEG-lipid 50:10:38.5:1.5, hEPO mRNA
Procedure, shortened: as §1

| Structure (SMILES) | Encapsulation Efficiency ([1]; Table 3) | Expression at 6 h (μg/ml) [2] | Apparant Pka ([3]; Table 3) | polydispersity ([4]; Table 3) | size nm ([4]; Table 3) | Encapsulation Efficiency ([1]; Table 2) | Expression at 6 h [2] | Apparant Pka ([3]; Table 2) | polydispersity ([4]; Table 2) | size nm ([4]; Table 2) |
| --- | --- | --- | --- | --- | --- | --- | --- | --- | --- | --- |
| CCCCCCCCCCCOC(=O)CCCCCN(CCCCCC(=O)NCC(CCCCCCCC)CCCCCCCC)CCN(CCO)C1CCCCCC1 [Compound 149] | 86.3% | B (≥1 and <2) | 6.810 | 0.07 | 72.85 nm | – | – | – | – | – |
| CCCCCCCCOC(CCCCCN(CCCCCC(=O)NCC(CCCCCC)CCCCCC)CCN(CCO)C1CCC1)OCCCCCCCC [Compound 150] | 93.5% | A (≥2) | 6.918 | 0.06 | 66.33 nm | – | – | – | – | – |
| CCCCCCCCCCCOC(=O)CCCCCN(CCCCCC(=O)NCC(CCCCCCCC)CCCCCCCC)CCN(CCO)C1CC1 [Compound 151] | 94.0% | C (≥0.1 and <1) | 6.948 | 0.061 | 73.86 nm | – | – | – | – | – |
| CCCCCCC(CCCCCC)CC(=O)NCCCCCN(CCCCCOC(=O)CC(CCCCCC)CCCCCC)CCN(CCO)C1CCCCC1 [Compound 152] | 88.2% | A (≥2) | 6.686 | 0.026 | 92.17 nm | – | – | – | – | – |
| CCCCCCC(CCCCCC)CC(=O)NCCCCCN(CCCCCOC(=O)CC(CCCCCC)CCCCCC)CCN(CCO)C1CC1 [Compound 153] | 85.5% | A (≥2) | 6.621 | 0.059 | 107.4 nm | – | – | – | – | – |
| CCCCCCC(CCCCCC)CC(=O)NCCCCCN(CCCCCOC(=O)CC(CCCCCC)CCCCCC)CCN(CCO)C1CCCC1 [Compound 154] | 88.4% | A (≥2) | 6.836 | 0.068 | 104.8 nm | – | – | – | – | – |
| CCCCCCCCC(CCCCCC)COC(=O)NCCCCN(CCCCNC(=O)OCC(CCCCCC)CCCCCCCC)CCN(CCO)C1CCC1 (stereo not shown) [Compound 155] | 98.4% | B (≥1 and <2) | 6.797 | 0.035 | 64.39 nm | – | – | – | – | – |
| CCCCCCCCC(CCCCCC)COC(=O)CCCCCN(CCCCCC(=O)OCC(CCCCCC)CCCCCCCC)CCNCCO (stereo not shown) [Compound A] | – | – | – | – | – | 100.0% | 0.01 µg/mL | 6.96 | 0.108 | 58.5 nm |
| CCCCCCCCC(CCCCCC)COC(=O)CCCCCN(CCCCCC(=O)OCC(CCCCCC)CCCCCCCC)CCN(C)CCO (stereo not shown) [Compound B] | – | – | – | – | – | 100.0% | 0.44 µg/mL | 7.33 | 0.060 | 79.0 nm |
| CCCCCCCCC(CCCCCC)COC(=O)CCCCCN(CCCCCC(=O)OCC(CCCCCC)CCCCCCCC)CCN(CCO)CCCC (stereo not shown) [Compound C] | – | – | – | – | – | 96.9% | 2.95 µg/mL | 6.46 | 0.061 | 65.0 nm |
| CCCCCCCCC(CCCCCC)COC(=O)CCCCCN(CCCCCC(=O)OCC(CCCCCC)CCCCCCCC)CCN(CCO)CCCCCC (stereo not shown) [Compound D] | – | – | – | – | – | 95.5% | 1.02 µg/mL | 6.28 | 0.118 | 59.2 nm |
